Test results taken from US10196345B2, “MAO-B selective inhibitor compounds, pharmaceutical compositions thereof and uses thereof” (The University of British Columbia, priority 2013, dated 2019).

Experiments:
[1] = stability assay in human liver microsomes; details: after 60 minutes at room temperature
[2] = system: Madin Darby canine kidney (MDCK-I) cells; assay: TEER in MDCK-I cells; assay type: cell-based; details: for TEER, LPS+deprenyl vs control: MDCK-I cells, Transwell, LPS range, 40 μM deprenyl; for 144-hour barrier (TEER) vs control: MDCK-I, treated at 72 hours; for effect on TEER (MAO A, B, AB inhibitors): no concentration given
Experimental: In each case, TEER was measured every 48 hours after treatment.
Transwell cultures were treated at 72 hours (T) post-cell plating.
Transepithelial Resistance (TER) is a common method to screen for barrier integrity. […] Fluorescein isothiocyanate conjugated 10 kD dextran (Invitrogen™) will be added to the apical Transwell™ compartment, fixed, and examined for dextran permeation (Umeda et al., 2006).
Amphiregulin (AR) is an EGFR binding ligand and may play a pivotal role in the previously described signaling axis (see FIGS. 15-17). […] (ii) GI [intestinal epithelial cell (IEC)] and (iii) classical [Madin-Darby canine kidney (MDCK-1)].

[3] = system: IL-8 protein expression in Caco-2 cells; assay: IL-8 protein expression in LPS- and TNFα-treated Caco-2 cells; assay type: cell-based, human; details: Caco-2, 1 μg/mL LPS or 50 ng/mL TNFα + 20 μM compound, 4, 12 or 24 h
Experimental: Caco-2 cells were seeded at 83300 cells/cm^2 on a polystyrene 96-well plate in DMEM medium (#10313-021, Gibco™) containing 10% FBS. On day 5 after seeding, wells were replaced with fresh media containing 2.5% FBS. […] Supernatants of the treated cells were analyzed for pro- and anti-inflammatory cytokine proteins using the Human Proinflammatory 7-Plex Ultra-Sensitive Kit™ (K15008C, MSD™) measured by the Sector Imager 2400A (MSD™). Left panel: Absolute concentrations of IL-8 protein in supernatants of cells treated with control (media only), 1 μg/mL LPS or 50 ng/mL TNFα. […] Values were determined by subtracting supernatant cytokine concentrations of control from supernatant cytokine concentrations of treated cells. Results are expressed as mean±standard deviation (n=3).

recombinant human MAO-A = target: T1, recombinant human MAO-A (Homo sapiens, UniProt P21397); assay: Cell-free Fluorescent Monoamine Oxidase A&B Detection Assay, MAO-A; assay type: biochemical; details: read-out: IC90 MAO-A (μM)
T1 sequence (P21397 1-527): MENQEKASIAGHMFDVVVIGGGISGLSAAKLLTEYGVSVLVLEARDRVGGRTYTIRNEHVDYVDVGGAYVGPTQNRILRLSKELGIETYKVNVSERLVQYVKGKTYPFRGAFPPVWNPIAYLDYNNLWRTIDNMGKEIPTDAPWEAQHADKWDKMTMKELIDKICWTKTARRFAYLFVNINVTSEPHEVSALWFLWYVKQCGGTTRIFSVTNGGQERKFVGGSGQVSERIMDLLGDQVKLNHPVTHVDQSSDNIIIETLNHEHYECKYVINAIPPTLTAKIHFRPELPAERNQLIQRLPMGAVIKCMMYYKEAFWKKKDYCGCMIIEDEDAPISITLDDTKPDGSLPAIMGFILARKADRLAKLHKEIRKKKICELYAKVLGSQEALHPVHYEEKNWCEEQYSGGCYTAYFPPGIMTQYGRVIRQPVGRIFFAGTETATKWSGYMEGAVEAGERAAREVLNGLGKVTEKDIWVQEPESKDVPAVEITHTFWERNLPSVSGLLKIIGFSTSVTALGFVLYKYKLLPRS
Experimental: The assay was repeated to confirm data.
MAO B specific inhibitory activity and selectivity over MAO A is assayed using a commercial kit [Fluoro MAO A and B detection kit (Cell Technology Inc™)]. This kit uses a non-fluorescent detection reagent to measure H2O2 released from the conversion of an MAO A and MAO B substrate specific to its aldehyde. Furthermore, H2O2 oxidizes the detection reagent in a 1:1 stoichiometry to produce a fluorescent product (resorufin). […] This information is then provided to the medicinal chemists to help direct synthesis of subsequent iterations.

[4] = mouse hepatocyte stability assay; details: after 60 minutes at room temperature
[5] = system: DSS induced colitis in C57BL/6 mice; assay: 3% DSS induced colitis, claudin-3 localization; assay type: in vivo; details: 3% DSS in drinking water, day 7, C57BL/6 mice
Source text: FIGS. 21A and B show a 3% DSS induced colitis and protects epithelial cell-cell claudin-3 localization. […] (A). […] (B). […] Increased cell infiltrate is evident in the DSS-treated animals by the DAPI (blue) staining.

[6] = stability assay in mouse liver microsomes; details: after 60 minutes at room temperature
C. rodentium infections = assay: seven-day C. rodentium infection model; assay type: in vivo
[7] = system: human intestinal microvascular endothelial cells (HIMEC); assay: IL-8, IL-6 and TNFα protein expression in LPS-treated HIMEC; assay type: cell-based; details: 1000 ng/mL LPS + 10 μM compound, 1 or 3 hrs
Experimental: Human microvascular endothelial cells were seeded at 37500 cells/cm^2 on a fibronectin-coated polystyrene 96-well plate in MCDB 131 medium (#10372-019, Gibco™) containing 20% FBS. On day 2 after seeding, wells were replaced with fresh media containing 2.5% FBS. […] Supernatants of the treated cells were analyzed for pro- and anti-inflammatory cytokine proteins using the Human Proinflammatory 7-Plex Ultra-Sensitive Kit (K15008C, MSD) measured by the Sector Imager 2400A (MSD). Left panel: Absolute concentrations of IL-8, IL-6 and TNFα protein in supernatants of cells treated with control (media only) or increasing concentrations of LPS. Right panel: Absolute IL-8, IL-6 or TNFα concentrations induced or attenuated by 1000 ng/mL LPS±the novel MAO B inhibitors. Values were determined by subtracting supernatant cytokine concentrations of control from supernatant cytokine concentrations of treated cells. Results are expressed as mean±standard deviation (n=3). Statistical significance was determined using a one-way ANOVA and Tukey post-hoc test in SPSS (IBM) comparing control and LPS (left panel) or LPS and novel MAO B inhibitors (right panel). *p<0.05, **p<0.001

[8] = system: rat intestinal epithelial (IEC-6) cells; assay: TEER, LPS-induced barrier loss, IEC-6 cells; assay type: cell-based; details: Transwell, LPS challenge at 72 hours
Experimental: (§1) In each case, TEER was measured every 48 hours after treatment. Statistically significant differences were identified.
(§2) Transepithelial Resistance (TER) is a common method to screen for barrier integrity. […] For select compounds barrier integrity and protection is also measured using tracer studies because TER accuracy in examining TJ integrity has recently come into question (Van Itallie et al., 2008). Fluorescein isothiocyanate conjugated 10 kD dextran (Invitrogen™) will be added to the apical Transwell™ compartment, fixed, and examined for dextran permeation (Umeda et al., 2006). We expect control and deprenyl-treated cells with an intact barrier to maintain the tracer at the apical membrane region, whereas the breached monolayers will show tracer permeation between the cells.

[9] = in vitro BBB permeability in MDCK-WT cells; details: dog, MDCK
Source text: Wildtype Madin-Darby canine cells (MDCK-WT) were used to predict CNS permeability of compounds PS-RG0103, PS-RG0216, PS-RG0245 and PS-AD0191. […] J Allergy Clin Immunol. 1990; 86(6 pt 2): p. 1025-8.
Novel MAO B inhibitors selected based on the above screening program will be screened using an in vitro model of blood brain barrier (BBB). Madin-Darby canine kidney (MDCK-WT) and MDCK cells transfected with the human MDR1 gene (MDCK-MDR1) are well established in vitro models used to predict a compound's ability to permeate the blood brain barrier (BBB). […] Apparent permeability (Papp), Efflux ratio (Papp B-A/Papp A-B), as well as the Net flux ratio (Efflux ratioMDCK-MDR1/Efflux ratioMDCK-WT) can be calculated to identify compound BBB permeability and identify compounds that are substrates of P-gp.

[10] = system: Porcine ligament epithelial (PLE) cells; assay: TEER, LPS-induced barrier loss, PLE cells; assay type: cell-based; details: Transwell, LPS challenge at 72 hours
Experimental: as §1, §2

[11] = system: rat periodontal disease model; details: cited from earlier work
[12] = obese and non-obese rats; cited from earlier work
AR protein secretion = assay: amphiregulin (AR) protein secretion, MDCK-I cells; assay type: cell-based, canine; details: no concentration given
[13] = system: MAO activity in adipocytes; details: cited from earlier work
[14] = seven-day C. rodentium infection, preliminary

## C#CCN(C)[C@H](C)Cc1ccccc1 [Deprenyl]
[1]
  compound remaining in human microsome: 15%
[2]
  TEER, LPS+deprenyl vs control: rescues LPS reduction of TEER
  effect on TEER (MAO A, B, AB inhibitors): increased TEER
[2]; listed as deprenyl
  TEER, LPS+deprenyl vs control: significantly induced TEER above control
[2]; MDCK-I on Transwell membranes, H2O2
  TEER, co-treatment with H2O2: increased TEER significantly above the control
[2]; 5 μm inhibitor
  144-hour barrier (TEER) vs control: increased over control
[2]; 40 μm inhibitor
  144-hour barrier (TEER) vs control: increased over control
[3]
  IL-8 protein expression: attenuation of IL-8 protein expression
Recombinant human MAO-A
  IC90: 9.38 µM
[4]
  compound remaining, mouse hepatocyte stability: less than 2.5%
[5]
  claudin-3 localization: better localized to epithelial cell-cell contacts
[6]
  compound remaining in mouse microsome: less than 2.5%
C. rodentium infections; C. rodentium
  bacterial growth rates: did not influence bacterial growth rates
C. rodentium infections; [14]
  TJ protein localization at the cell periphery: intact
  hyperplastic phenotype: not apparent
[7]
  IL-8, IL-6 and TNFα protein expression: attenuation
[8]
  TEER, LPS+deprenyl vs control: rescues LPS reduction of TEER
[8]; listed as deprenyl
  TEER, LPS+deprenyl vs control: significantly induced TEER above control
[9]
  Papp: 440 ± 25 nm/s
[10]
  TEER, LPS+deprenyl vs control: rescues LPS reduction of TEER
[10]; listed as deprenyl
  TEER, LPS+deprenyl vs control: significantly induced TEER above control

## NNCCc1ccccc1 [phenelzine]
[11]; co-applied topically with LPS, rat
  histological indicators of periodontal disease: histological indicators of periodontal disease were reduced
[11]; rat periodontal disease model, daily LPS
  local epithelial cell proliferation and migration, alveolar bone loss, PMN infiltration and systemic H2O2: reduced
[12]
  MAO activity: inhibited MAO activity
  body weight gain: diminished body weight gain
  intra-abdominal adipose tissue: reduced intra-abdominal adipose tissue
[2]; 5 μm inhibitor
  144-hour barrier (TEER) vs control: increased over control
[2]; 40 μm inhibitor
  144-hour barrier (TEER) vs control: increased over control
[2]
  effect on TEER (MAO A, B, AB inhibitors): increased TEER
AR protein secretion
  effect on AR expression/secretion (MAO A, B, AB inhibitors): reduced AR expression
[13]
  MAO activity in adipocytes: inhibit MAO activity in adipocytes
